Laboratory results from patent US20240166626A1, “Compounds and Methods for Preventing, Treating, or Ameliorating Airway Disease” (THOMAS JEFFERSON UNIVERSITY, priority 2021, published 2024).

Molecular target: FLAG-β2AR (Homo sapiens, UniProt P07550)
Assay: Receptor internalization, cell surface ELISA, HEK 293 FLAG-β2AR
Format: cell-based
Settings: 10 μM DFPQ, ISO up to 60 min, FIG. 4A
Procedure: FIGS. 4A-4F: DFPQ inhibits internalization of the β2AR and protects from agonist induced desensitization in cell and tissue models. FIG. 4A: Effect of DFPQ on agonist-promoted internalization of the β2AR. […] Cells were fixed and receptor surface expression was measured by ELISA. […] Cells were lysed and cAMP production was measured by ELISA. […] FIG. 4C: […] Airway contractility was measured by luminal area of bronchioles by microscopy at various times. FIG. 4D: […] HASM cells were scratched and incubated overnight in PDGF containing serum free media. Cells were imaged to evaluate migration into the scratched area. […] Cells were read every three minutes for 18 minutes on a PolarStar Optima plate reader (BMG) to establish peak signal. […] Luminescence was determined at room temperature (23-25° C.) on a PolarStar Optima plate reader (BMG). […] Relative assay bias was calculated from the ratio of normalized cAMP and arrestin recruitment responses. […] BRET was measured using a Tecan Infinite F500 microplate reader. […] Bound [35 S]GTPγS was collected by rapid filtration on GF/B filters, washed 4 times with 4 ml of cold GTPγS wash buffer and analyzed by liquid scintillation counting. […] Immunoprecipitated proteins were separated by SDS-PAGE and analyzed by western blot using a β2AR C-terminal tail or phospho-specific antibody. […] Band intensity was measured by densitometry using ImageJ. […]

FLAG-β2AR, sequence (P07550 whole entry): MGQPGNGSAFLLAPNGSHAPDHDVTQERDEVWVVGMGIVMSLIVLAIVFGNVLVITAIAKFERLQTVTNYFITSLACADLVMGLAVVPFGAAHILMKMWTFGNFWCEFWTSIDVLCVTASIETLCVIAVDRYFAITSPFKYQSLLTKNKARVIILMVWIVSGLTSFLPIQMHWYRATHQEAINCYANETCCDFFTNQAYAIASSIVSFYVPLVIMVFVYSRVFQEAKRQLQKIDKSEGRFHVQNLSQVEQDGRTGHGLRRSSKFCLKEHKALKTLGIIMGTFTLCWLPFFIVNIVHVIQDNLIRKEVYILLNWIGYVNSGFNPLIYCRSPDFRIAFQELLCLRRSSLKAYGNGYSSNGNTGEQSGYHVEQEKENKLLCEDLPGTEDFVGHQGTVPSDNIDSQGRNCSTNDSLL

- agonist-induced internalization of the receptor: fully inhibited
Structure (SMILES): Fc1ccc(Nc2nc(NC3CCCCC3)c3ccccc3n2)cc1F [DFPQ, N^4-cyclohexyl-N^2-(3,4-difluorophenyl)quinazoline-2,4-diamine]
